13 molecules from paper PMC10326435, “Antiprotozoal activity of natural products from Nigerien plants used in folk medicine” (Frontiers in Pharmacology, 2023) can be followed below.

Molecules are shown by their SMILES. Several values for one entry are separate records, joined by “and”; a condition that tells them apart may be missing. Equal entries are not always repeated. Where two headings read alike, the source gives them in different places.

Data set [1] concerns T. b. rhodesiense (STIB900, trypomastigotes). Put plainly: in vitro activity on T. b. rhodesiense, serial dilution assay. Format: cell-based, Trypanosoma brucei rhodesiense. Particulars: for IC50: Trypanosoma brucei. The protocol: (§1) The in vitro activity was assessed on T. b. rhodesiense (STIB900, trypomastigotes), T. cruzi (Tulahuen C2C4, intracellular amastigotes), L. donovani (MHOM-ET-67/L82, axenically grown amastigotes), P. falciparum (NF54, intraerythrocytic), and L6 cells (ATCC, CRL-1458™, rat skeletal myoblasts) as previously described ([Bernal et al., 2020]). The activities were determined in serial dilution assays with 72 h compound exposure, respectively 96 h for intracellular T. cruzi. Results are expressed in µg/mL for extracts and in µM for pure compounds. The IC50 values were determined for the compounds only when they were <50 µM.

In data set [2] the test system is P. falciparum (NF54, intraerythrocytic). Put plainly: in vitro activity on P. falciparum, serial dilution assay. The data set is classed as cell-based, Plasmodium falciparum. Conditions: for IC50: Plasmodium falciparum, read-out: IC50 P. falciparum; for Selectivity index (SI) P. falciparum: SI = IC50 cytotoxicity (L6)/IC50 in P. falciparum. Here is the method:
as §1

A short description of the next data set: cytotoxicity in L6 cells. The data set is classed as cell-based, rat. The protocol:
as §1

Data set [3] relates to L. donovani (MHOM-ET-67/L82, axenically grown amastigotes). Kind of data set: in vitro activity on L. donovani, serial dilution assay. The data set is classed as cell-based, Leishmania donovani. Conditions: for IC50: Leishmania donovani; for Selectivity index (SI) L. donovani: SI = IC50 cytotoxicity (L6)/IC50 in L. donovani. Here is the method:
as §1

Data set [4] relates to T. cruzi (Tulahuen C2C4, intracellular amastigotes). Kind of data set: in vitro activity on T. cruzi, serial dilution assay. Conditions: for IC50: Trypanosoma cruzi, TULAHUEN
The data set is classed as cell-based, Trypanosoma cruzi. Here is the method: as §1

[5] abbreviates: 72 h exposure, means of two independent assays ± deviation from the mean, read-out: IC50 T. b. rhodesiense.
Where [6] appears, read: rat skeletal myoblast (L6 cells), 72 h exposure, means of two independent assays ± deviation from the mean, read-out: IC50 Cytotoxicity.
The mark [7] stands for this setting: 72 h, read-out: IC50 L. donovani.
The mark [8] stands for this setting: 72 h, 72 h exposure, means of two independent assays ± deviation from the mean, read-out: IC50 T. b. rhodesiense.
The mark [9] stands for this setting: NF54, 72 h, 72 h exposure, means of two independent assays ± deviation from the mean.
The mark [10] stands for this setting: rat, L6 cells (rat skeletal myoblasts, ATCC CRL-1458), rat skeletal myoblast (L6 cells), 72 h exposure, means of two independent assays ± deviation from the mean, read-out: IC50 Cytotoxicity.
The mark [11] stands for this setting: 72 h, axenic amastigotes, 72 h exposure, means of two independent assays ± deviation from the mean, read-out: IC50 L. donovani.
[12] abbreviates: 96 h, 96 h exposure, means of two independent assays ± deviation from the mean, read-out: IC50 T. cruzi.
Where [13] appears, read: inactive, read-out: IC50 T. b. rhodesiense (inactive).
The mark [14] stands for this setting: inactive, read-out: IC50 L. donovani (inactive).
Where [15] appears, read: inactive, read-out: IC50 T. cruzi (inactive).

A word on the IC50: it is the concentration that gives 50% inhibition. As to `COC1=CC(=O)C=C(OC)C1=O` [Compound 23], the IC50 in data set [1] (setting [5]) is 9.3 ± 3.1 µM; in data set [2] (NF54, 72 h) it was 36.9 ± 15.4 µM; in data set [3] (setting [7]), 15.1 ± 1 µM; in data set [4] (96 h, read-out: IC50 T. cruzi), more than 50 µM. Besides, in the data set “cytotoxicity in L6 cells” (setting [6]), the IC50 at 72 h was more than 50 µM.
On to `CC(C)=CCC1=C(Cl)C(=O)c2c(O)ccc(O)c2C1=O` [Compound 21], for which the “Selectivity index (SI) T. b. rhodesiense” value in data set [1] (SI = IC50 cytotoxicity (L6)/IC50 in T. b. rhodesiense) worked out at 15.8. Also, the IC50 amounted to 0.5 ± 0.3 µM in data set [1] (setting [8]), 9.2 ± 2.1 µM in data set [2] (setting [9]), 3 ± 0.4 µM in data set [3] (setting [11]) and 21.5 ± 0.2 µM in data set [4] (setting [12]). Also, the “Selectivity index (SI) P. falciparum” value in data set [2] amounted to 0.9. In the data set “cytotoxicity in L6 cells” (setting [10]), the half-maximal inhibitory concentration (IC50) at 72 h was 7.9 ± 1.3 µM. Further, in data set [3], the “Selectivity index (SI) L. donovani” value was 2.6. For the same molecule, the “Selectivity index (SI) T. cruzi” value in data set [4] (SI = IC50 cytotoxicity (L6)/IC50 in T. cruzi) was 0.4.
As to `C=C(C)C12CCC3(CCC4(C)C(CCC5C6(C)C(C(=O)O)C(O)C(C)(C)C6CCC54C)C31)C(=O)O2` (centres unmarked) [Compound 13], the IC50 in data set [1] (setting [8]) was more than 50 µM; in data set [2] (setting [9]), 29.1 ± 4.1 µM; in data set [3] (setting [11]) it was 11.6 ± 2.4 µM; in data set [4] (setting [12]) it was more than 50 µM. Besides, the “Selectivity index (SI) P. falciparum” value in data set [2] is on record as more than 3.7. The same molecule registered an IC50 at 72 h in the data set “cytotoxicity in L6 cells” (rat, IC50 Cytotoxicity) of more than 50 µM. In addition, the “Selectivity index (SI) L. donovani” value in data set [3] is more than 9.3.
`C=C(C)[C@@H]1CC[C@]2(C(=O)O)CC[C@]3(C(=O)O)[C@H](CC[C@@H]4[C@@]5(C)C=CC(C)(C)[C@@H]5CC[C@]43C)[C@@H]12` [Compound 17, ceanothenic acid]: the IC50 in data set [1] (setting [5]) is more than 50 µM; in data set [2] (NF54, 72 h), 13.9 ± 4 µM; in data set [3] (setting [7]), 2.6 ± 0.2 µM; in data set [4] (96 h, read-out: IC50 T. cruzi), more than 50 µM. Besides, the “Selectivity index (SI) P. falciparum” value in data set [2] is recorded as more than 8.0. Besides, in “cytotoxicity in L6 cells” (setting [6]), the IC50 at 72 h is more than 50 µM. For the same molecule, the “Selectivity index (SI) L. donovani” value in data set [3] was more than 40.
Regarding `CN[C@@H](Cc1ccccc1)C(=O)N[C@@H]1C(=O)N[C@@H](CC(C)C)C(=O)N/C=C\c2ccc(cc2)O[C@H]1C(C)C` [Compound 7, sanjoinine B], the IC50 is more than 50 µM in data set [1] (setting [8]), 23.1 ± 9 µM in data set [2] (setting [9]), more than 50 µM in data set [3] (setting [11]) and more than 50 µM in data set [4] (setting [12]). Further, the “Selectivity index (SI) P. falciparum” value in data set [2] is given as more than 6.0. Further, the IC50 at 72 h in “cytotoxicity in L6 cells” (setting [10]) is more than 50 µM.
As for `O=C(Cn1ccnc1[N+](=O)[O-])NCc1ccccc1` [Benznidazole, reference compound], the IC50 in data set [4] (setting [12]) was 2.3 ± 0.2 µM; in data set [4] (96 h, Table 2, 96 h exposure, means of two independent experiments, read-out: IC50 T. cruzi), 0.667 µg/mL.
For the molecule `COc1cc([C@@H]2c3cc4c(cc3[C@H](O)[C@H]3COC(=O)[C@H]23)OCO4)cc(OC)c1OC` [Podophyllotoxin, reference compound], the IC50 at 72 h in the data set “cytotoxicity in L6 cells” (Table 2, rat skeletal myoblast (L6 cells), 72 h exposure, read-out: IC50 Cytotoxicity) stood at 0.008 µg/mL.
With `CCCCCCCCCCCCCCCCOP(=O)([O-])OCC[N+](C)(C)C` [Miltefosine, reference compound], the IC50 was 0.282 µg/mL in data set [3] (72 h, Table 2, 72 h exposure, means of two (C. sieberiana three) independent experiments, read-out: IC50 L. donovani) and 0.52 ± 0.07 µM in data set [3] (setting [11]).
For the molecule `CC(C)=CCCc1ccc2c(c1)C(=O)c1ccccc1C2=O` [Compound 27], the IC50 in data set [1] (setting [13]) is more than 50 µM; in data set [2] (NF54, abstract and b45 text), more than 50 µM; in data set [3] (setting [14]), more than 50 µM; in data set [4] (setting [15]), more than 50 µM.
In the case of `Nc1nc(N)nc(Nc2ccc([As]3SCC(CO)S3)cc2)n1` (centres unmarked) [Melarsoprol, reference compound], in data set [1] (72 h, read-out: IC50 T. b. rhodesiense), the IC50 is 0.005 µg/mL and 16 nM.
Regarding `CC(C)[C@H](NC(=O)[C@H](C)N(C)C)C(=O)N1CC[C@@H]2Oc3ccc(cc3)/C=C\NC(=O)[C@H](Cc3ccccc3)NC(=O)[C@H]21` [Compound 5, mauritine A], the concentration for half-maximal inhibition (IC50) was more than 50 µM in data set [1] (setting [13]); more than 50 µM in data set [2] (NF54, abstract and b45 text); more than 50 µM in data set [3] (setting [14]); more than 50 µM in data set [4] (setting [15]).
As to `CC(C)=CCCc1ccc2c(c1O)C(=O)c1ccccc1C2=O` [Compound 28], the IC50 is more than 50 µM in data set [1] (setting [13]); more than 50 µM in data set [2] (NF54, abstract and b45 text); more than 50 µM in data set [3] (setting [14]); more than 50 µM in data set [4] (setting [15]).
In the case of `CCN(CC)CCCC(C)Nc1ccnc2cc(Cl)ccc12` (centres unmarked) [Chloroquine, reference compound], in data set [2] (NF54, 72 h), the IC50 is 0.003 µg/mL and 9 nM.
